Data reported in patent US10183943B2, “Heterocyclic compounds and their use in preventing or treating bacterial infections” (MUTABILIS, priority 2015, dated 2019).

Legend:
TEM-1 = molecular target: T1, TEM-1 (Escherichia coli, UniProt P62593); assay: β-lactamase inhibitory activity, determination of IC50 (nitrocefin hydrolysis); format: biochemical
T1 construct: made in house; host or cells: E. coli

SHV-1 = molecular target: T2, SHV-1 (Klebsiella pneumoniae, UniProt P0AD64); assay: as above; format: biochemical
T2 construct: made in house; host or cells: E. coli

CTX-M-15 = molecular target: T3, CTX-M-15 (Escherichia coli, UniProt Q9EXV5); assay: as above; format: biochemical; details: class (A); nitrocefin 200 μM, 30 min pre-incubation; read-out: IC50 β-lactamase CTX-M-15
T3 construct: made in house; host or cells: E. coli

KPC-2 = molecular target: T4, KPC-2 (Klebsiella pneumoniae, UniProt Q9F663); assay: as above; format: biochemical; details: class (A); nitrocefin 200 μM, 30 min pre-incubation; read-out: IC50 β-lactamase KPC-2
T4 construct: made in house; host or cells: E. coli

OXA-1 = molecular target: T5, OXA-1 (Escherichia coli, UniProt P13661); assay: as above; format: biochemical; details: class (D); nitrocefin 200 μM, 30 min pre-incubation; read-out: IC50 β-lactamase OXA-1
T5 construct: made in house; host or cells: E. coli

OXA-11 = molecular target: T6, OXA-11 (Pseudomonas aeruginosa, UniProt Q06778); assay: as above; format: biochemical
T6 construct: made in house; host or cells: E. coli

OXA-15 = molecular target: T7, OXA-15 (Pseudomonas aeruginosa, UniProt Q51574); assay: biochemical
T7 construct: made in house; host or cells: E. coli

OXA-48 = molecular target: T8, OXA-48 (Klebsiella pneumoniae, UniProt Q6XEC0); assay: β-lactamase inhibitory activity, determination of IC50 (nitrocefin hydrolysis); format: biochemical; details: class (D); nitrocefin 200 μM, 30 min pre-incubation; read-out: IC50 β-lactamase OXA-48
T8 construct: made in house; host or cells: E. coli

E. cloacae P99 (AmpC) = assay: MIC of compounds alone, broth microdilution; format: cell-based; details: Enterobacter cloacae; strain P99 (E. cloacae); read-out: MIC compounds of the invention alone
Procedure: (§1) Method 2: MIC of Compounds and Synergy with Ceftazidime Against Bacterial Isolates (Table 2 and 3)
(§2) Compounds of the present invention were assessed against genotyped bacterial strains alone or in combination with the β-lactam ceftazidime (CAZ). In the assays, MICs of said compounds, or of ceftazidime at fixed concentrations of said compounds were determined by the broth microdilution method according to the Clinical Laboratory Standards Institute (CLSI-M7-A7). Briefly, compounds alone according to the invention were prepared in DMSO and spotted (2 μL each) on sterile polystyrene plates (Corning, 3788). Compounds and ceftazidime dilutions were prepared in DMSO and spotted (1 μL each) on sterile polystyrene plates (Corning, 3788). Log phase bacterial suspensions were adjusted to a final density of 5×10^5 cfu/mL in cation-adjusted Mueller-Hinton broth (Becton-Dickinson) and added to each well (98 μL). Microplates were incubated for 16-20 h at 35° C. in ambient air. The MIC of the compounds was defined as the lowest concentration of said compounds that prevented bacterial growth as read by visual inspection. The MIC of ceftazidime at each compound concentration was defined as the lowest concentration of ceftazidime that prevented bacterial growth as read by visual inspection.

[1] = tested on: E. coli 131119 (TEM-1, OXA-48); assay: MIC of compounds alone, broth microdilution; format: cell-based; details: Escherichia coli; strain 131119 (E. coli); read-out: MIC compounds of the invention alone
Procedure: as §1, §2

[2] = tested on: E. coli 190317 (TEM-1, SHV-12, CTX-M-15, OXA-1); assay: MIC of compounds alone, broth microdilution; format: cell-based; details: Escherichia coli, read-out: MIC compounds of the invention alone
Procedure: as §1, §2

E. coli RGN238 (OXA-1) = assay: MIC of compounds alone, broth microdilution; format: cell-based; details: Escherichia coli; strain RGN238 (E. coli); read-out: MIC compounds of the invention alone
Procedure: as §1, §2

[3] = tested on: K. pneumoniae 6299 (TEM-1, SHV-11, OXA-163); assay: MIC of compounds alone, broth microdilution; format: cell-based; details: Klebsiella pneumoniae; strain 6299 (K. pneumoniae); read-out: MIC compounds of the invention alone
Procedure: as §1, §2

[4] = tested on: K. pneumoniae BAA-1898 (TEM-1, SHV-11, SHV-12, KPC-2); assay: MIC of compounds alone, broth microdilution; format: cell-based; details: Klebsiella pneumoniae, BAA1898; strain BAA-1898 (K. pneumoniae); read-out: MIC compounds of the invention alone
Procedure: as §1, §2

[5] = tested on: P. aeruginosa CIP107051 (TEM-24); assay: MIC of compounds alone, broth microdilution; format: cell-based; details: Pseudomonas aeruginosa; strain CIP107051 (P. aeruginosa); read-out: MIC compounds of the invention alone
Procedure: as §1, §2

AmpC (P99) = AmpC (P99) (Enterobacter cloacae, UniProt P05364); assay: β-lactamase inhibitory activity, determination of IC50 (nitrocefin hydrolysis)
AmpC P. aeruginosa = AmpC P. aeruginosa (Pseudomonas aeruginosa, UniProt P24735); assay: as above
Sequence of AmpC P. aeruginosa (P24735 27-397): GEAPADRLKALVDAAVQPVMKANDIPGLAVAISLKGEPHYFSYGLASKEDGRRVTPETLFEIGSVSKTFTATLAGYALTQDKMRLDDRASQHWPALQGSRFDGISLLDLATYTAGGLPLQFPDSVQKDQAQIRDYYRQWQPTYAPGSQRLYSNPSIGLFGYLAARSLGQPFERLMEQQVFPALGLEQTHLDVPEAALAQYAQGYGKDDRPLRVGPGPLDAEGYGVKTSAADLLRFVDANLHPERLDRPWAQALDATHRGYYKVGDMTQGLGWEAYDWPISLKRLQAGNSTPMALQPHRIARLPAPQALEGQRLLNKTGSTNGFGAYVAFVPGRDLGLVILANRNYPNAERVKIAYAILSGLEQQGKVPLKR

T2 sequence (P0AD64 22-286): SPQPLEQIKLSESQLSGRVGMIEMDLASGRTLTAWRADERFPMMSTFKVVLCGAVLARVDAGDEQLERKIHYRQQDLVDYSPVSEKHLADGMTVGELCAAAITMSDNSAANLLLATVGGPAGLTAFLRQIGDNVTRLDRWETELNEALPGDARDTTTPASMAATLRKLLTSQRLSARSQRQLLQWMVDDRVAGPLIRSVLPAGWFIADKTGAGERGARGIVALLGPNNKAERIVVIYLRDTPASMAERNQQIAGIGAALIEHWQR
T6 sequence (Q06778 21-266): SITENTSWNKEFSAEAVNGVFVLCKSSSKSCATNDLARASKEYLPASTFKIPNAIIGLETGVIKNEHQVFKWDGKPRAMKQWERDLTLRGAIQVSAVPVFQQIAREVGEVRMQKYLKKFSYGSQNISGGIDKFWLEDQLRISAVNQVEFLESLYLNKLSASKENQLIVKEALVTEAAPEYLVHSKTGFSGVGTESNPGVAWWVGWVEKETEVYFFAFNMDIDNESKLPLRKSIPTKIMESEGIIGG
T4 sequence (Q9F663 25-293 limits assumed): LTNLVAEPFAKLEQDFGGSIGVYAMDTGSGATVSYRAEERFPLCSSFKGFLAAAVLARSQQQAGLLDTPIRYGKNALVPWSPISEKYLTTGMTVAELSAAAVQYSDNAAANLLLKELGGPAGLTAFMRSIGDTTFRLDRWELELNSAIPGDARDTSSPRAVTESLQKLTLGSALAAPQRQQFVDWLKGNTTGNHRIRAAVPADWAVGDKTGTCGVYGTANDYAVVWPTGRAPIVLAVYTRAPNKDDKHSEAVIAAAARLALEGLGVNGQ
T1 sequence (P62593 24-286 limits assumed): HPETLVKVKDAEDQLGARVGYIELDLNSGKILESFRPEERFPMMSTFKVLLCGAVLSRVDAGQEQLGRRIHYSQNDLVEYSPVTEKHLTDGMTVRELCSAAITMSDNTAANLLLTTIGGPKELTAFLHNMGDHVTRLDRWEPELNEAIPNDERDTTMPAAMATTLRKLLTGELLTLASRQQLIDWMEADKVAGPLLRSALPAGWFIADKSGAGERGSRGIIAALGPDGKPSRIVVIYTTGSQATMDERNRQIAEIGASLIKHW
Sequence of AmpC (P99) (P05364 21-381): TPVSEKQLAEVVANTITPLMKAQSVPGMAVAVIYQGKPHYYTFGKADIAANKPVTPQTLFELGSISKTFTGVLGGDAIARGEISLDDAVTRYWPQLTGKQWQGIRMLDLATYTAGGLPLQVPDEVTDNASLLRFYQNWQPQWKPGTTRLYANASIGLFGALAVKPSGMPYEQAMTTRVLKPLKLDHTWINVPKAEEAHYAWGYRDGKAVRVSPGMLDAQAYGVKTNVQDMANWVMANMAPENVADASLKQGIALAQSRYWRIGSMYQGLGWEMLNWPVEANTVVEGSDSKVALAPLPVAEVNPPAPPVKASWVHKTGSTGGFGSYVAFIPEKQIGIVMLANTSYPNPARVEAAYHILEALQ
T3 sequence (Q9EXV5 entry or part of it): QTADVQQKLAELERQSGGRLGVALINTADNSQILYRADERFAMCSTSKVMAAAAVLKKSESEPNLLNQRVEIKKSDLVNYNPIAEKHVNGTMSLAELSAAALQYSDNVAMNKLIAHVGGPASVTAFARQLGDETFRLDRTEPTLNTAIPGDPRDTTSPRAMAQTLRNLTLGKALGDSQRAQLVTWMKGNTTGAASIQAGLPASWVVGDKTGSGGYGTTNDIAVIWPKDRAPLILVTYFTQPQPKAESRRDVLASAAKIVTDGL
T7 sequence (Q51574 22-275): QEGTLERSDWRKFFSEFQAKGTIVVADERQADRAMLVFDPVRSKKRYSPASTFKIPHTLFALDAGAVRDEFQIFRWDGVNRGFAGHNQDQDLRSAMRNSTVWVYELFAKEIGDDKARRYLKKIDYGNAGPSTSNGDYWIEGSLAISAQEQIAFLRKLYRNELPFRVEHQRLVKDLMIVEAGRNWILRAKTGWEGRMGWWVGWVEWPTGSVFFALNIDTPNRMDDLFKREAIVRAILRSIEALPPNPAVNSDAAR
T8 sequence (Q6XEC0 23-265 limits assumed): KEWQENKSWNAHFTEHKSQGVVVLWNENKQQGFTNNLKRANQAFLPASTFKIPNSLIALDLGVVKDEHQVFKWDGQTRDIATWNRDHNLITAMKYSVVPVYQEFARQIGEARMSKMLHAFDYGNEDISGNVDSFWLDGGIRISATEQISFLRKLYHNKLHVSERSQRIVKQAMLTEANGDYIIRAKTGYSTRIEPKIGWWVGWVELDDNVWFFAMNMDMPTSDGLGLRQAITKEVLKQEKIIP
T5 sequence (P13661 26-276): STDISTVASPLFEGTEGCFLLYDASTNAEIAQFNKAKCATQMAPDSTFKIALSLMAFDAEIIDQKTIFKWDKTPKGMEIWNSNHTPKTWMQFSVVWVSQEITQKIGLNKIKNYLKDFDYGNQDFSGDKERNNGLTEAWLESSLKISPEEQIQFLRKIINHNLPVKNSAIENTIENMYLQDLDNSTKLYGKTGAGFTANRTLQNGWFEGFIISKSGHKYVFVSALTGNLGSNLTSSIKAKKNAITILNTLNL

Compound	IC50 (TEM-1) [nM]	IC50 (SHV-1) [nM]	IC50 (CTX-M-15) [nM]	IC50 (KPC-2) [nM]	IC50 (OXA-1) [nM]	IC50 (OXA-11) [nM]	IC50 (OXA-15) [nM]	IC50 (OXA-48) [nM]	MIC (E. cloacae P99 (AmpC)) [µg/mL]	MIC [1] [µg/mL]	MIC [2] [µg/mL]	MIC (E. coli RGN238 (OXA-1)) [µg/mL]	MIC [3] [µg/mL]	MIC [4] [µg/mL]	MIC [5] [µg/mL]	IC50 (AmpC (P99)) [nM]	IC50 (AmpC P. aeruginosa) [nM]
O=C1N2CC=C(c3cn[nH]c3)C(C2)N1OS(=O)(=O)[O-].[Na+] (centres unmarked) [Example 1, Sodium (7-oxo-4-pyrazol-4-yl-1,6-diaza-bicyclo[3.2.1]oct-3-en-6-yl) sulfate]	13	29	26	770	1400	2900	590	8.9	> 32	> 32	32	> 32	> 32	> 32	> 32	6100	9300
O=C1N2CC=C(c3ccccn3)C(C2)N1OS(=O)(=O)[O-].[Na+] (centres unmarked) [Example 11, Sodium [4-(2-pyridyl)-7-oxo-1,6-diazabicyclo[3.2.1]oct-3-en-6-yl]sulfate]	27	56	29	1800	1300	6400	310	5.1	> 32	> 32	> 32	> 32	> 32	> 32	> 32	8900	4600
O=C1N2CC=C(c3cnsc3)C(C2)N1OS(=O)(=O)[O-].[Na+] (centres unmarked) [Example 29, Sodium [4-(isothiazol-4-yl)-7-oxo-1,6-diazabicyclo[3.2.1]oct-3-en-6-yl] sulfate]	11	20	5.8	150	330	1700	91	2.8	> 32	> 32	> 32	> 32	> 32	> 32	> 32	950	1200
O=C1N2CC(c3cnoc3)=CC(C2)N1OS(=O)(=O)[O-].[Na+] (centres unmarked) [Example 26, sodium [3-(isoxazol-4-yl)-7-oxo-1,6-diazabicyclo[3.2.1]oct-3-en-6-yl] sulfate]	4.8	13	5.7	4.2	370	140	210	6.6	8	2		4	8	8	> 32	51	74
O=C1N2CC(c3ncon3)=CC(C2)N1OS(=O)(=O)[O-].[Na+] (centres unmarked) [Example 36, Sodium [3-(1,2,4-oxadiazol-3-yl)-7-oxo-1,6-diazabicyclo[3.2.1]oct-3-en-6-yl] sulfate]	2.3	16	1.1	39	2400	920	660	2.1	8	1		4	16	8	> 32	43	160
Cn1cc(C2=CCN3CC2N(OS(=O)(=O)[O-])C3=O)ncc1=O.[Na+] (centres unmarked) [Example 14, Sodium [4-(4-methyl-5-oxo-pyrazin-2-yl)-7-oxo-1,6-diazabicyclo[3.2.1]oct-3-en-6-yl] sulfate]	1.6	2.9	2.7	52	730	920	33	1.4	8	8		> 32	> 32	> 32	> 32	890	1900
Cn1ccc(C2=CCN3CC2N(OS(=O)(=O)[O-])C3=O)cc1=O.[Na+] (centres unmarked) [Example 13, Sodium [4-(1-methyl-2-oxo-4-pyridyl)-7-oxo-1,6-diazabicyclo[3.2.1]oct-3-en-6-yl] sulfate]	6.1	8.8	6	63	820	730	230	2.3	16	8		> 32	> 32	> 32	> 32	2800	3200
O=C1N2CC(n3ccnc3)=CC(C2)N1OS(=O)(=O)[O-].[Na+] (centres unmarked) [Example 34, Sodium [3-imidazol-1-yl-7-oxo-1,6-diazabicyclo[3.2.1]oct-3-en-6-yl]sulfate]	7.2	21	2.7	24	410	650	220	220	8	8		16	32	16	> 32	59	500
O=C1N2CC=C(c3ccns3)C(C2)N1OS(=O)(=O)[O-].[Na+] (centres unmarked) [Example 30, Sodium [4-(isothiazol-5-yl)-7-oxo-1,6-diazabicyclo[3.2.1]oct-3-en-6-yl] sulfate]	5.2	15	1.8	63	150	720	23	2.5	8	4		> 32	> 32	> 32	> 32	200	780
O=C1N2CC=C(c3cccnc3)C(C2)N1OS(=O)(=O)[O-].[Na+] (centres unmarked) [Example 9, Sodium [4-(3-pyridyl)-7-oxo-1,6-diazabicyclo[3.2.1]oct-3-en-6-yl]sulfate]	3.8	11	4.8	68	130	730	52	1.4	> 32	16		> 32	> 32	> 32	> 32	770	810
O=C1N2CC(c3cnco3)=CC(C2)N1OS(=O)(=O)[O-].[Na+] (centres unmarked) [Example 35, Sodium [3-(oxazol-5-yl)-7-oxo-1,6-diazabicyclo[3.2.1]oct-3-en-6-yl]sulfate]	2.3	8.4	0.81	8.2	1400	300	74	2.5	8	2		4	8	4	> 32	51	210
